This assay deals with MV-4-11 cells. The experiment in a line: Gene expression microarray analysis (Affymetrix PrimeView) and GSEA. It is filed as cell-based, human. More on the design: RFU PODN (11730768_x_at) / Fold change /veh PODN (11730768_x_at) / RFU LINC00158 (11744669_a_at) / Fold change /veh LINC00158 (11744669_a_at) / RFU DUSP10 (11751237_a_at) / Fold change /veh DUSP10 (11751237_a_at) / RFU ID3 (11757404_x_at) / Fold change /veh ID3 (11757404_x_at) / RFU PLEKHG5 (11737974_s_at) / Fold change /veh PLEKHG5 (11737974_s_at) / RFU LRRC4B (11730491_at) / Fold change /veh LRRC4B (11730491_at) / RFU GIMAP4 (11747438_a_at) / Fold change /veh GIMAP4 (11747438_a_at) / RFU KRT8 (11758183_x_at) / Fold change /veh KRT8 (11758183_x_at) / RFU CNN1 (11734310_a_at) / Fold change /veh CNN1 (11734310_a_at) / RFU VPS37D (11726825_at) / Fold change /veh VPS37D (11726825_at) / RFU C10orf10 (11716522_x_at) / Fold change /veh C10orf10 (11716522_x_at) / RFU KIR2DL2 /// KIR2DL4 /// KIR2DL5A /// KIR2DL5B /// KIR2DS1 /// KIR2DS2 /// KIR2DS3 /// KIR2DS4 /// KIR3DL3 /// KIR3DL3 /// KIR3DS1 (11738374_at) / Fold change /veh KIR2DL2 /// KIR2DL4 /// KIR2DL5A /// KIR2DL5B /// KIR2DS1 /// KIR2DS2 /// KIR2DS3 /// KIR2DS4 /// KIR3DL3 /// KIR3DL3 /// KIR3DS1 (11738374_at) / RFU C1QL1 (11718748_at) / Fold change /veh C1QL1 (11718748_at) / RFU TMPRSS4 (11747572_a_at) / Fold change /veh TMPRSS4 (11747572_a_at) / RFU HAMP (11756126_x_at) / Fold change /veh HAMP (11756126_x_at) / RFU RNFT2 (11725882_a_at) / Fold change /veh RNFT2 (11725882_a_at) / RFU NR4A2 (11747474_a_at) / Fold change /veh NR4A2 (11747474_a_at) / RFU ABCC12 (11746883_a_at) / Fold change /veh ABCC12 (11746883_a_at) / RFU TMEM136 (11760407_x_at) / Fold change /veh TMEM136 (11760407_x_at) / RFU CLDN22 /// WWC2 (11732394_at) / Fold change /veh CLDN22 /// WWC2 (11732394_at) / RFU HLA-DPB1 (11760878_x_at) / Fold change /veh HLA-DPB1 (11760878_x_at) / RFU SPINT1 (11716480_a_at) / Fold change /veh SPINT1 (11716480_a_at) / RFU GAP43 (11754022_s_at) / Fold change /veh GAP43 (11754022_s_at) / RFU A4GNT (11735810_at) / Fold change /veh A4GNT (11735810_at) / RFU PRB3 (11715151_x_at) / Fold change /veh PRB3 (11715151_x_at) / RFU TUBB4B (11761932_at) / Fold change /veh TUBB4B (11761932_at) / RFU CAPN14 (11732068_a_at) / Fold change /veh CAPN14 (11732068_a_at) / RFU TMCC2 (11721928_a_at) / Fold change /veh TMCC2 (11721928_a_at) / RFU IRGQ (11745062_a_at) / Fold change /veh IRGQ (11745062_a_at) / RFU FAM174B (11720279_a_at) / Fold change /veh FAM174B (11720279_a_at) / RFU TMPRSS4 (11748680_a_at) / Fold change /veh TMPRSS4 (11748680_a_at) / RFU FAM212B (11763350_a_at) / Fold change /veh FAM212B (11763350_a_at) / RFU PLEKHG5 (11743358_a_at) / Fold change /veh PLEKHG5 (11743358_a_at) / RFU ZSCAN30 (11745921_a_at) / Fold change /veh ZSCAN30 (11745921_a_at) / RFU CMKLR1 (11741424_a_at) / Fold change /veh CMKLR1 (11741424_a_at) / RFU LOC101060620 /// MAPK8IP1 (11723275_at) / Fold change /veh LOC101060620 /// MAPK8IP1 (11723275_at) / RFU SPTSSB (11747773_x_at) / Fold change /veh SPTSSB (11747773_x_at) / RFU PRSS12 (11739890_at) / Fold change /veh PRSS12 (11739890_at) / RFU BIN1 (11741810_x_at) / Fold change /veh BIN1 (11741810_x_at) / RFU WNT11 (11732464_a_at) / Fold change /veh WNT11 (11732464_a_at) / RFU C10orf10 (11716521_a_at) / Fold change /veh C10orf10 (11716521_a_at) / RFU C5orf56 (11738089_at) / Fold change /veh C5orf56 (11738089_at) / RFU CYB561 (11721691_x_at) / Fold change /veh CYB561 (11721691_x_at) / RFU ANKRD19P (11752326_a_at) / Fold change /veh ANKRD19P (11752326_a_at) / RFU OR2T12 /// OR2T33 /// OR2T8 (11738714_s_at) / Fold change /veh OR2T12 /// OR2T33 /// OR2T8 (11738714_s_at) / RFU VCAN (11748164_a_at) / Fold change /veh VCAN (11748164_a_at) / RFU JSRP1 (11732532_at) / Fold change /veh JSRP1 (11732532_at) / RFU KRTAP10-11 (11738290_x_at) / Fold change /veh KRTAP10-11 (11738290_x_at) / RFU MYO3A (11730013_a_at) / Fold change /veh MYO3A (11730013_a_at) / RFU EBF3 (11725865_a_at) / Fold change /veh EBF3 (11725865_a_at) / RFU CAMK2N1 (11719241_x_at) / Fold change /veh CAMK2N1 (11719241_x_at) / RFU C5orf56 (11738088_a_at) / Fold change /veh C5orf56 (11738088_a_at) / RFU OLFML3 (11715873_a_at) / Fold change /veh OLFML3 (11715873_a_at) / RFU LOC100653217 /// NTM (11731650_a_at) / Fold change /veh LOC100653217 /// NTM (11731650_a_at) / RFU MAPK11 (11762145_a_at) / Fold change /veh MAPK11 (11762145_a_at) / RFU FIZ1 (11724087_x_at) / Fold change /veh FIZ1 (11724087_x_at) / RFU OASL (11726364_x_at) / Fold change /veh OASL (11726364_x_at) / RFU SOX15 (11748057_x_at) / Fold change /veh SOX15 (11748057_x_at) / RFU CD79A (11719716_a_at) / Fold change /veh CD79A (11719716_a_at) / RFU HIST1H1D (11736915_at) / Fold change /veh HIST1H1D (11736915_at) / RFU CASKIN2 (11723855_a_at) / Fold change /veh CASKIN2 (11723855_a_at) / RFU LOC730098 (11760151_x_at) / Fold change /veh LOC730098 (11760151_x_at) / RFU OR4N2 (11742367_at) / Fold change /veh OR4N2 (11742367_at) / RFU PRRT2 (11749266_a_at) / Fold change /veh PRRT2 (11749266_a_at) / RFU SNX32 (11753110_a_at) / Fold change /veh SNX32 (11753110_a_at) / RFU CDHR5 (11726645_a_at) / Fold change /veh CDHR5 (11726645_a_at) / RFU RCAN1 (11760418_a_at) / Fold change /veh RCAN1 (11760418_a_at) / RFU FAM167A (11723789_a_at) / Fold change /veh FAM167A (11723789_a_at) / RFU FAM26E (11764081_at) / Fold change /veh FAM26E (11764081_at) / RFU ISYNA1 (11749810_s_at) / Fold change /veh ISYNA1 (11749810_s_at) / RFU ACY1 (11761880_at) / Fold change /veh ACY1 (11761880_at) / RFU 11764098_at / Fold change /veh 11764098_at / RFU SAMD14 (11745864_x_at) / Fold change /veh SAMD14 (11745864_x_at) / RFU NPB (11741838_a_at) / Fold change /veh NPB (11741838_a_at) / RFU TMPRSS6 (11731388_a_at) / Fold change /veh TMPRSS6 (11731388_a_at) / RFU KRTAP10-2 (11738614_at) / Fold change /veh KRTAP10-2 (11738614_at) / RFU ARHGAP8 /// PRR5-ARHGAP8 (11727945_x_at) / Fold change /veh ARHGAP8 /// PRR5-ARHGAP8 (11727945_x_at) / RFU KRTAP5-7 /// NADSYN1 (11734609_at) / Fold change /veh KRTAP5-7 /// NADSYN1 (11734609_at) / RFU RASL12 (11751679_a_at) / Fold change /veh RASL12 (11751679_a_at) / RFU CDKN2B (11736163_a_at) / Fold change /veh CDKN2B (11736163_a_at) / RFU PRF1 (11729649_at) / Fold change /veh PRF1 (11729649_at) / RFU, ZNF638 /// ZNF638-IT1 / Fold change vs veh, ZNF638 /// ZNF638-IT1 / RFU, PANK3 / Fold change vs veh, PANK3 / RFU, SH3YL1 / Fold change vs veh, SH3YL1 / RFU, ZEB2 / Fold change vs veh, ZEB2 / RFU, NRIP1 / Fold change vs veh, NRIP1 / RFU, PTTG1IP / Fold change vs veh, PTTG1IP / RFU, CAPN2 / Fold change vs veh, CAPN2 / RFU, MED14 / Fold change vs veh, MED14 / RFU, SNORA58 / Fold change vs veh, SNORA58 / RFU, C1orf63 / Fold change vs veh, C1orf63 / RFU, LRRFIP1 / Fold change vs veh, LRRFIP1 / RFU, NDUFAF7 / Fold change vs veh, NDUFAF7 / RFU, SLC12A2 / Fold change vs veh, SLC12A2 / RFU, IBTK / Fold change vs veh, IBTK / RFU, ESF1 / Fold change vs veh, ESF1 / Fold change vs veh, TMEM50B / RFU, TAOK1 / Fold change vs veh, TAOK1 / RFU, ACBD3 / Fold change vs veh, ACBD3 / RFU, TMA16 / Fold change vs veh, TMA16 / RFU, RWDD3 / Fold change vs veh, RWDD3 / RFU, BCAT1 / Fold change vs veh, BCAT1 / RFU, EDEM3 / Fold change vs veh, EDEM3 / RFU, TMEM33 / Fold change vs veh, TMEM33 / RFU, WDR75 / Fold change vs veh, WDR75 / RFU, AHCTF1 / Fold change vs veh, AHCTF1 / RFU, TFRC / Fold change vs veh, TFRC / RFU, ZDHHC17 / Fold change vs veh, ZDHHC17 / RFU, NOM1 / Fold change vs veh, NOM1 / RFU, ARL8B / Fold change vs veh, ARL8B / RFU, ZBTB11 / Fold change vs veh, ZBTB11 / RFU, TAMM41 / Fold change vs veh, TAMM41 / RFU, KIAA1704 /// LOC100996395 / Fold change vs veh, KIAA1704 /// LOC100996395 / RFU, ING1 / Fold change vs veh, ING1 / RFU, TRMT61B / Fold change vs veh, TRMT61B / RFU, FUBP3 / Fold change vs veh, FUBP3 / RFU, TP53 / Fold change vs veh, TP53 / RFU, TNKS2 / Fold change vs veh, TNKS2 / RFU, ZFP14 / Fold change vs veh, ZFP14 / RFU, ACTR2 / Fold change vs veh, ACTR2 / RFU, PPP3R1 / Fold change vs veh, PPP3R1 / RFU, PIK3R1 / Fold change vs veh, PIK3R1 / RFU, HNRNPA1 / Fold change vs veh, HNRNPA1 / RFU, RNF170 / Fold change vs veh, RNF170 / RFU, ZNF28 / Fold change vs veh, ZNF28 / RFU, RNGTT / Fold change vs veh, RNGTT / RFU, OGT / Fold change vs veh, OGT / RFU, BRD1 / Fold change vs veh, BRD1 / RFU, MARS / Fold change vs veh, MARS / RFU, ZNF655 / Fold change vs veh, ZNF655 / RFU, FAHD1 / Fold change vs veh, FAHD1 / RFU, BDP1 / Fold change vs veh, BDP1 / RFU, LRRCC1 / Fold change vs veh, LRRCC1 / RFU, ARID1A / Fold change vs veh, ARID1A / RFU, ZNF146 / Fold change vs veh, ZNF146 / RFU, ZNF330 / Fold change vs veh, ZNF330 / RFU, GPN3 / Fold change vs veh, GPN3 / RFU, C9orf123 / Fold change vs veh, C9orf123 / RFU, N4BP2L2 / Fold change vs veh, N4BP2L2 / RFU, ARFIP1 / Fold change vs veh, ARFIP1 / RFU, FAM179B / Fold change vs veh, FAM179B / RFU, BCL10 / Fold change vs veh, BCL10 / RFU, UHRF1BP1L / Fold change vs veh, UHRF1BP1L / RFU, BET1 / Fold change vs veh, BET1 / RFU, CNOT2 / Fold change vs veh, CNOT2 / RFU, ZNF268 / Fold change vs veh, ZNF268 / Fold change vs veh, ZNF507 / RFU, DGCR2 / Fold change vs veh, DGCR2 / RFU, WDSUB1 / Fold change vs veh, WDSUB1 / Fold change vs veh, HSP90B1 /// MIR3652 / RFU, ADSS / Fold change vs veh, ADSS / RFU, GK / Fold change vs veh, GK / RFU, ZNF148 / Fold change vs veh, ZNF148 / RFU, TAF9 / Fold change vs veh, TAF9 / RFU, SLC1A5 / Fold change vs veh, SLC1A5 / RFU, SLMO2 / Fold change vs veh, SLMO2 / RFU, ABCC4 / Fold change vs veh, ABCC4 / RFU, LOC101060439 /// RAP1B / Fold change vs veh, LOC101060439 /// RAP1B / RFU, RFX7 / Fold change vs veh, RFX7 / RFU, GTPBP10 / Fold change vs veh, GTPBP10 / RFU, CNEP1R1 / Fold change vs veh, CNEP1R1 / RFU, BIVM-ERCC5 /// ERCC5 / Fold change vs veh, BIVM-ERCC5 /// ERCC5 / RFU, ILF3 / Fold change vs veh, ILF3 / RFU 11762660_at / Fold change /veh 11762660_at / RFU VCAN (11757783_s_at) / Fold change /veh VCAN (11757783_s_at) / RFU DDX43 (11728927_at) / Fold change /veh DDX43 (11728927_at) / RFU KRT8 (11758188_x_at) / Fold change /veh KRT8 (11758188_x_at) / RFU NKD1 (11759106_at) / Fold change /veh NKD1 (11759106_at) / RFU SRD5A1 (11742802_a_at) / Fold change /veh SRD5A1 (11742802_a_at) / RFU TPSAB1 /// TPSB2 (11721975_s_at) / Fold change /veh TPSAB1 /// TPSB2 (11721975_s_at) / RFU GSTM3 (11746129_a_at) / Fold change /veh GSTM3 (11746129_a_at) / RFU IL23R (11737362_x_at) / Fold change /veh IL23R (11737362_x_at) / RFU TMEM51 (11727254_a_at) / Fold change /veh TMEM51 (11727254_a_at) / RFU PIWIL2 (11732686_x_at) / Fold change /veh PIWIL2 (11732686_x_at) / RFU ORM1 (11744905_x_at) / Fold change /veh ORM1 (11744905_x_at) / RFU CCDC152 (11743942_at) / Fold change /veh CCDC152 (11743942_at) / RFU ECM1 (11717891_a_at) / Fold change /veh ECM1 (11717891_a_at) / RFU IL23R (11748794_a_at) / Fold change /veh IL23R (11748794_a_at) / RFU TNFAIP8L3 (11732012_x_at) / Fold change /veh TNFAIP8L3 (11732012_x_at) / RFU MBOAT4 (11741988_at) / Fold change /veh MBOAT4 (11741988_at) / RFU 11764193_at / Fold change /veh 11764193_at / RFU TMEM53 (11763286_at) / Fold change /veh TMEM53 (11763286_at) / RFU MAGEB2 (11727129_at) / Fold change /veh MAGEB2 (11727129_at) / RFU TMEM200A (11744735_a_at) / Fold change /veh TMEM200A (11744735_a_at) / RFU CCDC152 (11751479_a_at) / Fold change /veh CCDC152 (11751479_a_at) / RFU FAM211A (11726209_a_at) / Fold change /veh FAM211A (11726209_a_at) / RFU RGS16 (11746705_a_at) / Fold change /veh RGS16 (11746705_a_at) / RFU VCAN (11755009_s_at) / Fold change /veh VCAN (11755009_s_at) / RFU RHOB (11743442_s_at) / Fold change /veh RHOB (11743442_s_at) / RFU RGS16 (11720943_a_at) / Fold change /veh RGS16 (11720943_a_at) / RFU RGS16 (11720944_at) / Fold change /veh RGS16 (11720944_at) / RFU, VPS4B / Fold change vs veh, VPS4B / RFU, CREB1 / Fold change vs veh, CREB1 / RFU, DNAJC13 / Fold change vs veh, DNAJC13 / RFU, GNAQ / Fold change vs veh, GNAQ / RFU, CDK5R1 / Fold change vs veh, CDK5R1 / RFU, ZRANB3 / Fold change vs veh, ZRANB3 / RFU, CUL4A / Fold change vs veh, CUL4A / RFU, CCNY / Fold change vs veh, CCNY / RFU, UFL1 / Fold change vs veh, UFL1 / RFU, COG3 / Fold change vs veh, COG3 / RFU, DIAPH2 / Fold change vs veh, DIAPH2 / RFU, SKA2 / Fold change vs veh, SKA2 / RFU, AFF3 / Fold change vs veh, AFF3 / RFU, LMF1 / Fold change vs veh, LMF1 / RFU, IPO11 / Fold change vs veh, IPO11 / RFU, DFFB / Fold change vs veh, DFFB / RFU, FOXP1 / Fold change vs veh, FOXP1 / RFU, CARD8 / Fold change vs veh, CARD8 / RFU, STRN3 / Fold change vs veh, STRN3 / RFU, ADK / Fold change vs veh, ADK / RFU, RASSF2 / Fold change vs veh, RASSF2 / RFU, WIPF1 / Fold change vs veh, WIPF1 / RFU, LARP1B / Fold change vs veh, LARP1B / RFU, RASA1 / Fold change vs veh, RASA1 / RFU, RB1 / Fold change vs veh, RB1 / RFU, PPFIA1 / Fold change vs veh, PPFIA1 / RFU, MAT2A / Fold change vs veh, MAT2A / RFU, CCT5 / Fold change vs veh, CCT5 / RFU, WDR92 / Fold change vs veh, WDR92 / RFU, CUX1 / Fold change vs veh, CUX1 / RFU, TTC7A / Fold change vs veh, TTC7A / RFU, TMEM135 / Fold change vs veh, TMEM135 / RFU, DEPTOR / Fold change vs veh, DEPTOR / RFU, CPM / Fold change vs veh, CPM / RFU, DNAJB6 / Fold change vs veh, DNAJB6 / RFU, CACNA2D3 / Fold change vs veh, CACNA2D3 / RFU, DTX4 / Fold change vs veh, DTX4 / RFU, TFCP2 / Fold change vs veh, TFCP2 / RFU, GMCL1 /// GMCL1P1 / Fold change vs veh, GMCL1 /// GMCL1P1 / RFU, AEBP2 / Fold change vs veh, AEBP2 / RFU, SNHG1 /// SNORD22 /// SNORD25 /// SNORD26 /// SNORD27 /// SNORD28 /// SNORD29 /// SNORD31 / Fold change vs veh, SNHG1 /// SNORD22 /// SNORD25 /// SNORD26 /// SNORD27 /// SNORD28 /// SNORD29 /// SNORD31 / Fold change (Aza/veh), C12orf56 (ProbeSet 11735607_a_at) / Fold change (ACY-1035/veh), C12orf56 (ProbeSet 11735607_a_at) / Fold change (Aza/veh), FGFR1OP (ProbeSet 11751329_s_at) / Fold change (ACY-1035/veh), FGFR1OP (ProbeSet 11751329_s_at) / Fold change (Aza/veh), VPS36 (ProbeSet 11739960_a_at) / Fold change (ACY-1035/veh), VPS36 (ProbeSet 11739960_a_at) / RFU SYPL1 (11715823_x_at) / Fold change /veh SYPL1 (11715823_x_at) / RFU IGFBP7 (11715501_s_at) / Fold change /veh IGFBP7 (11715501_s_at) / RFU REEP3 (11722064_at) / Fold change /veh REEP3 (11722064_at) / RFU IGLL1 (11728026_x_at) / Fold change /veh IGLL1 (11728026_x_at): dose or concentration left out as unconfirmed. The conditions noted are these: ProbeSet 11725217_a_at; LIST B.

For `Nc1ncn([C@@H]2O[C@H](CO)[C@@H](O)[C@H]2O)c(=O)n1` [azacitidine], the “RFU, WDSUB1” value was determined as 50.65 RFU.

The record behind these values is paper PMC5218480 (PLoS ONE, 2017).
